Data set [1] in a line: Curcumin detection by HPLC-UV in the 0.25% w/w solution of Composition A in buffer. In kind it is physicochemical. As to conditions: due to incomplete solubility in the buffers.
The nature of data set [2]: Intestinal passage test: curcumin passage through the Caco-2 monolayer, HPLC-UV. The following applies: human.
Procedure: The passage through a monolayer of Caco-2 cells of Composition A at non-cytotoxic concentration is monitored at defined times (0 min- 15 min -30 min and 60 min).
The Caco-2 cells grown as a monolayer on a permeable artificial support reproduce the intestinal epithelial layer (monolayer of cells that are polarized and coupled by tight junctions). The flow through the monolayer allows to establish the permeability of a substance.
After 21 days of growth on insert, the differentiated cells show an apical side, corresponding to the intestinal lumen in vivo, and one that corresponds to the basolateral compartment of the blood and lymphatic circulation of the organism.
The culture medium is aspirated from all cell monolayers before the experiments of permeability. All cell monolayers are washed once with HBSS solution (Hank's Balanced Salt Solution) and left to equilibrate at 37°C for 20 min. […] In parallel, the same amount of substance is divided into equal aliquots and represents the apical sample at time = 0 minutes (0'AP). At the receiving side of the monolayer 1.2 mL of 1X HBSS-Hepes 1% (pH 7.4) are added. […]
Using the mathematical formulas described by Arturrson the relationships are calculated between concentrations of substances in the basolateral (receiver) and in the apical (donor) compartments at each sampling time.

On to `COc1cc(/C=C/C(=O)CC(=O)/C=C/c2ccc(O)c(OC)c2)ccc1O` [Curcumin, curcumin], for which, in data set [1], the “loss in title (theoretical curcumin content not detected in the solution)” value stood at 23%. Also, the Papp A→B at 60 min, 1.404 mM in data set [2] was determined as 0.804 ×10⁻⁶ cm/s.

A word on the Papp A→B: it is the apparent permeability from the apical to the basolateral side of a cell layer.
